Assay results: patent US20250387426A1 (priority 2024, published 2025)

Assays:
[1] = tested on: migraine headache; conditions: human, in vivo
[2] = tested on: tension headache; conditions: human, in vivo

C[C@@H]1[C@H](c2ccccc2)C[C@H](NC(=O)c2cnc3c(c2)C[C@@]2(C3)C(=O)Nc3ncccc32)C(=O)N1CC(F)(F)F [Ubrelvy]
benefit as rescue medication [1]: not helpful

CN(C)CCC=C1c2ccccc2CCc2ccccc21 [amitriptyline]
benefit as migraine prophylactic agent [1]: without benefit

NCC(CC(=O)O)c1ccc(Cl)cc1 (centres unmarked) [baclofen]
benefit as migraine prophylactic agent [1]: without benefit | benefit as migraine prophylaxis [1]: no benefit | benefit from previous treatment [1]: no benefit

CCCCN1CCCCC1C(=O)Nc1c(C)cccc1C (centres unmarked) [bupivacaine]
pain after local anesthetic injection along superior nuchal line [1]: substantially improved for two days

Oc1ccc2c(c1)[C@@]13CCCC[C@@]1(O)[C@@H](C2)N(CC1CCC1)CC3 [butorphanol]
benefit as rescue medication [1]: without benefit

NC(=O)N1c2ccccc2C=Cc2ccccc21 [carbamazepine]
benefit as migraine prophylactic agent [1]: without benefit

COC1=C(OC)C(=O)C(C/C=C(\C)CC/C=C(\C)CC/C=C(\C)CC/C=C(\C)CC/C=C(\C)CC/C=C(\C)CC/C=C(\C)CC/C=C(\C)CC/C=C(\C)CCC=C(C)C)=C(C)C1=O [coenzyme Q10]
benefit as migraine prophylactic agent [1]: without benefit | benefit as migraine prophylaxis [1]: no benefit | effect on headache frequency [1]: did not affect the frequency of their headaches

O=C(O)Cc1ccccc1Nc1c(Cl)cccc1Cl [diclofenac]
benefit as rescue medication [1]: without benefit

CN1CCC[C@@H]1Cc1c[nH]c2ccc(CCS(=O)(=O)c3ccccc3)cc12 [eletriptan]
benefit as rescue medication [1]: consistently effective

NCC1(CC(=O)O)CCCCC1 [gabapentin]
benefit as migraine prophylactic agent [1]: without benefit | benefit as migraine prophylaxis [1]: no benefit | benefit from previous treatment [1]: no benefit

CC(C)Cc1ccc(C(C)C(=O)O)cc1 (centres unmarked) [ibuprofen]
benefit from previous treatment [1]: no benefit | headache relief [2]: may resolve with ibuprofen

CCCCc1nc(Cl)c(CO)n1Cc1ccc(-c2ccccc2-c2nn[nH]n2)cc1 [losartan]
benefit as migraine prophylaxis [1]: no benefit

CCN(CC)CCNC(=O)c1cc(Cl)c(N)cc1OC [metoclopramide]
tolerability [1]: intolerant

C[C@]12C=CC(=O)C=C1CC[C@@H]1[C@@H]2C(=O)C[C@@]2(C)[C@H]1CC[C@]2(O)C(=O)CO [prednisone]
benefit as migraine prophylactic agent [1]: without benefit

CC(C)C[C@H](CN)CC(=O)O [pregabalin]
benefit as migraine prophylactic agent [1]: without benefit | comorbid neuropathic facial pain [2]: treated effectively

CC(C)NCC(O)COc1cccc2ccccc12 (centres unmarked) [propranolol]
benefit as migraine prophylactic agent [1]: without benefit | benefit from previous treatment [1]: no benefit | tolerability [1]: caused dizziness

Cc1cc2nc3c(=O)[nH]c(=O)nc-3n(C[C@H](O)[C@H](O)[C@H](O)CO)c2cc1C [riboflavin]
effect on headache frequency [1]: did not affect the frequency of their headaches

CN(C)CCc1c[nH]c2ccc(Cn3cncn3)cc12 [rizatriptan]
adverse effect of rescue medication [1]: severe elevation in their blood pressure | benefit as rescue medication [1]: no longer effective | share of time the rescue medication worked [1]: approximately 20 % of the time

Clc1ccc2nsnc2c1NC1=NCCN1 [tizanidine]
benefit as migraine prophylactic agent [1]: without benefit | benefit as migraine prophylaxis [1]: partially helpful

CC1(C)O[C@@H]2[C@@H](CO[C@@]3(COS(N)(=O)=O)OC(C)(C)O[C@@H]23)O1 [topiramate]
benefit as migraine prophylactic agent [1]: without benefit | severe migraine headache frequency [1]: 5 to 7 days a week | tolerability [1]: could not tolerate the side effects

CCCC(CCC)C(=O)O [valproic acid]
benefit as migraine prophylactic agent [1]: without benefit

CN(C)CCc1c[nH]c2ccc(C[C@H]3COC(=O)N3)cc12 [zolmitriptan nasal spray, zolmitriptan]
benefit as rescue medication [1]: without benefit

NS(=O)(=O)Cc1noc2ccccc12 [zonisamide]
benefit as migraine prophylactic agent [1]: without benefit

B1: Emgality: prophylactic agent prescribed for chronic migraine (antibody, chains of the INN, looked up, V domains shown)
VH: QVQLVQSGAEVKKPGSSVKVSCKASGYTFGNYWMQWVRQAPGQGLEWMGAIYEGTGKTVYIQKFADRVTITADKSTSTAYMELSSLRSEDTAVYYCARLSDYVSGFGYWGQGTTVTVSS
VL: DIQMTQSPSSLSASVGDRVTITCRASKDISKYLNWYQQKPGKAPKLLIYYTSGYHSGVPSRFSGSGSGTDFTLTISSLQPEDFATYYCQQGDALPPTFGGGTKVEIK
benefit as migraine prophylactic agent [1]: without benefit | benefit of subsequent treatment [1]: reduced the pain somewhat, but had not reduced the frequency or duration | migraine frequency [1]: 2 to 3 days/week | tolerability [1]: caused unwanted side effects | frequency of headaches with throbbing, light and sound sensitivity [2]: decreased to around once or twice per week

B2: Ajovy: prophylactic agent tried for migraines (antibody, chains of the INN, looked up, V domains shown)
VH: EVQLVESGGGLVQPGGSLRLSCAASGFTFSNYWISWVRQAPGKGLEWVAEIRSESDASATHYAEAVKGRFTISRDNAKNSLYLQMNSLRAEDTAVYYCLAYFDYGLAIQNYWGQGTLVTVSS
VL: EIVLTQSPATLSLSPGERATLSCKASKRVTTYVSWYQQKPGQAPRLLIYGASNRYLGIPARFSGSGSGTDFTLTISSLEPEDFAVYYCSQSYNYPYTFGQGTKLEIK
benefit as migraine prophylactic agent [1]: without benefit
